Experimental data as given in EPA's ToxValDB 9.5.

System: Rattus norvegicus
Conditions: short-term, duration: 28 days, oral, gavage, Sprague-Dawley

O=S(=O)(O)C(F)(F)C(F)(F)C(F)(F)C(F)(F)F [Perfluorobutanesulfonic acid]
LOEL (F, Clinical chemistry_Alanine aminotransferase): 250 mg/kg-day | NOEL (F, Clinical chemistry_Albumin): 1000 mg/kg-day | NOEL (F, Clinical chemistry_Albumin/globulin ratio): 1000 mg/kg-day | LOEL (F, Clinical chemistry_Alkaline phosphatase): 500 mg/kg-day | LOEL (F, Clinical chemistry_Aspartate aminotransferase): 500 mg/kg-day | LOEL (F, Clinical chemistry_Cholesterol): 500 mg/kg-day | LOEL (F, Clinical chemistry_Direct bilirubin): 500 mg/kg-day | LOEL (F, Clinical chemistry_Free thyroxine): 62.6 mg/kg-day | NOEL (F, Clinical chemistry_Globulin): 1000 mg/kg-day | NOEL (F, Clinical chemistry_Sorbitol dehydrogenase): 1000 mg/kg-day | NOEL (F, Clinical chemistry_Testosterone): 1000 mg/kg-day | NOEL (F, Clinical chemistry_Thyroid stimulating hormone): 1000 mg/kg-day | LOEL (F, Clinical chemistry_Total bile acids): 250 mg/kg-day | LOEL (F, Clinical chemistry_Total bilirubin): 500 mg/kg-day | NOEL (F, Clinical chemistry_Total protein): 1000 mg/kg-day | LOEL (F, Clinical chemistry_Total thyroxine): 62.6 mg/kg-day | LOEL (F, Clinical chemistry_Total triiodothyronine): 62.6 mg/kg-day | NOEL (F, Clinical chemistry_Triglycerides): 1000 mg/kg-day | LOEL (F, Gene expression_Acox1): 250 mg/kg-day | LOEL (F, Gene expression_Cyp2b1): 62.6 mg/kg-day | LOEL (F, Gene expression_Cyp2b2): 62.6 mg/kg-day | LOEL (F, Gene expression_Cyp4a1): 62.6 mg/kg-day | NOEL (F, Hematology_Erythrocytes): 1000 mg/kg-day | NOEL (F, Hematology_Hematocrit): 1000 mg/kg-day | NOEL (F, Hematology_Hemoglobin): 1000 mg/kg-day | NOEL (F, Hematology_Leukocytes): 1000 mg/kg-day | LOEL (F, Hematology_Reticulocytes): 125 mg/kg-day | NOEL (F, Hematology_S. neutrophils): 1000 mg/kg-day | LOEL (F, Nonneoplastic effects_Bone marrow - Hypocellularity): 1000 mg/kg-day | LOEL (F, Nonneoplastic effects_Kidney - Papilla, necrosis): 1000 mg/kg-day | LOEL (F, Nonneoplastic effects_Liver - Hepatocyte, cytoplasmic alteration): 500 mg/kg-day | LOEL (F, Nonneoplastic effects_Liver - Hepatocyte, hypertrophy): 500 mg/kg-day | NOEL (F, Nonneoplastic effects_Liver - Hepatocyte, vacuolization cytoplasmic): 1000 mg/kg-day | LOEL (F, Nonneoplastic effects_Liver - Necrosis): 1000 mg/kg-day | LOEL (F, Nonneoplastic effects_Nose - Olfactory epithelium, degeneration): 125 mg/kg-day | LOEL (F, Nonneoplastic effects_Nose - Olfactory epithelium, hyperplasia): 250 mg/kg-day | LOEL (F, Nonneoplastic effects_Nose - Olfactory epithelium, inflammation, suppurative): 1000 mg/kg-day | LOEL (F, Nonneoplastic effects_Nose - Olfactory epithelium, necrosis): 1000 mg/kg-day | NOEL (F, Nonneoplastic effects_Spleen - Extramedullary hematopoiesis, decreased): 1000 mg/kg-day | NOEL (F, Nonneoplastic effects_Stomach, forestomach - Epithelium, hyperplasia): 1000 mg/kg-day | LOEL (F, Nonneoplastic effects_Thymus - Atrophy): 1000 mg/kg-day | LOEL (F, Organ weights_Heart - Absolute): 500 mg/kg-day | NOEL (F, Organ weights_Heart - Relative): 1000 mg/kg-day | LOEL (F, Organ weights_Liver - Absolute): 250 mg/kg-day | LOEL (F, Organ weights_Liver - Relative): 125 mg/kg-day | NOEL (F, Organ weights_Lung - Absolute): 1000 mg/kg-day | NOEL (F, Organ weights_Lung - Relative): 1000 mg/kg-day | NOEL (F, Organ weights_R. adrenal gland - Absolute): 1000 mg/kg-day | NOEL (F, Organ weights_R. adrenal gland - Relative): 1000 mg/kg-day | NOEL (F, Organ weights_R. kidney - Absolute): 1000 mg/kg-day | LOEL (F, Organ weights_R. kidney - Relative): 62.6 mg/kg-day | LOEL (F, Organ weights_Spleen - Absolute): 500 mg/kg-day | NOEL (F, Organ weights_Spleen - Relative): 1000 mg/kg-day | LOEL (F, Organ weights_Thymus - Absolute): 500 mg/kg-day | NOEL (F, Organ weights_Thymus - Relative): 1000 mg/kg-day | LOEL (F, Reproductive toxicity_Altered estrous cyclicity): 250 mg/kg-day | LOEL (F, Survival rates): 250 mg/kg-day | LOEL (F, body weight): 1000 mg/kg-day | LOEL (M, Clinical chemistry_Alanine aminotransferase): 500 mg/kg-day | NOEL (M, Clinical chemistry_Albumin): 1000 mg/kg-day | LOEL (M, Clinical chemistry_Albumin/globulin ratio): 62.6 mg/kg-day | LOEL (M, Clinical chemistry_Alkaline phosphatase): 250 mg/kg-day | LOEL (M, Clinical chemistry_Aspartate aminotransferase): 500 mg/kg-day | LOEL (M, Clinical chemistry_Cholesterol): 62.6 mg/kg-day | LOEL (M, Clinical chemistry_Direct bilirubin): 500 mg/kg-day | LOEL (M, Clinical chemistry_Free thyroxine): 62.6 mg/kg-day | LOEL (M, Clinical chemistry_Globulin): 62.6 mg/kg-day | LOEL (M, Clinical chemistry_Sorbitol dehydrogenase): 500 mg/kg-day | NOEL (M, Clinical chemistry_Testosterone): 1000 mg/kg-day | NOEL (M, Clinical chemistry_Thyroid stimulating hormone): 1000 mg/kg-day | LOEL (M, Clinical chemistry_Total bile acids): 500 mg/kg-day | NOEL (M, Clinical chemistry_Total bilirubin): 1000 mg/kg-day | LOEL (M, Clinical chemistry_Total protein): 62.6 mg/kg-day | LOEL (M, Clinical chemistry_Total thyroxine): 62.6 mg/kg-day | LOEL (M, Clinical chemistry_Total triiodothyronine): 62.6 mg/kg-day | LOEL (M, Clinical chemistry_Triglycerides): 500 mg/kg-day | LOEL (M, Gene expression_Acox1): 125 mg/kg-day | LOEL (M, Gene expression_Acyl-CoA oxidase): 250 mg/kg-day | LOEL (M, Gene expression_Cyp2b1): 62.6 mg/kg-day | LOEL (M, Gene expression_Cyp2b2): 62.6 mg/kg-day | LOEL (M, Gene expression_Cyp4a1): 62.6 mg/kg-day | LOEL (M, Hematology_Erythrocytes): 125 mg/kg-day | LOEL (M, Hematology_Hematocrit): 125 mg/kg-day | LOEL (M, Hematology_Hemoglobin): 125 mg/kg-day | NOEL (M, Hematology_Leukocytes): 1000 mg/kg-day | LOEL (M, Hematology_Reticulocytes): 125 mg/kg-day | NOEL (M, Hematology_S. neutrophils): 1000 mg/kg-day | LOEL (M, Nonneoplastic effects_Bone marrow - Hypocellularity): 1000 mg/kg-day | LOEL (M, Nonneoplastic effects_Kidney - Papilla, necrosis): 1000 mg/kg-day | LOEL (M, Nonneoplastic effects_Liver - Hepatocyte, cytoplasmic alteration): 500 mg/kg-day | LOEL (M, Nonneoplastic effects_Liver - Hepatocyte, hypertrophy): 125 mg/kg-day | NOEL (M, Nonneoplastic effects_Liver - Hepatocyte, vacuolization cytoplasmic): 1000 mg/kg-day | LOEL (M, Nonneoplastic effects_Liver - Necrosis): 1000 mg/kg-day | LOEL (M, Nonneoplastic effects_Nose - Olfactory epithelium, degeneration): 250 mg/kg-day | LOEL (M, Nonneoplastic effects_Nose - Olfactory epithelium, hyperplasia): 250 mg/kg-day | LOEL (M, Nonneoplastic effects_Nose - Olfactory epithelium, inflammation, suppurative): 1000 mg/kg-day | LOEL (M, Nonneoplastic effects_Nose - Olfactory epithelium, necrosis): 1000 mg/kg-day | NOEL (M, Nonneoplastic effects_Spleen - Extramedullary hematopoiesis, decreased): 1000 mg/kg-day | LOEL (M, Nonneoplastic effects_Stomach, forestomach - Epithelium, hyperplasia): 1000 mg/kg-day | LOEL (M, Nonneoplastic effects_Thymus - Atrophy): 1000 mg/kg-day | LOEL (M, Organ weights_Heart - Absolute): 500 mg/kg-day | LOEL (M, Organ weights_Heart - Relative): 500 mg/kg-day | LOEL (M, Organ weights_Liver - Absolute): 125 mg/kg-day | LOEL (M, Organ weights_Liver - Relative): 62.6 mg/kg-day | NOEL (M, Organ weights_Lung - Absolute): 1000 mg/kg-day | NOEL (M, Organ weights_Lung - Relative): 1000 mg/kg-day | NOEL (M, Organ weights_R. adrenal gland - Absolute): 1000 mg/kg-day | NOEL (M, Organ weights_R. adrenal gland - Relative): 1000 mg/kg-day | LOEL (M, Organ weights_R. kidney - Absolute): 500 mg/kg-day | LOEL (M, Organ weights_R. kidney - Relative): 500 mg/kg-day | NOEL (M, Organ weights_Spleen - Absolute): 1000 mg/kg-day | NOEL (M, Organ weights_Spleen - Relative): 1000 mg/kg-day | LOEL (M, Organ weights_Thymus - Absolute): 500 mg/kg-day | LOEL (M, Organ weights_Thymus - Relative): 500 mg/kg-day | NOEL (M, Reproductive toxicity_Altered sperm parameters): 1000 mg/kg-day | LOEL (M, Survival rates): 1000 mg/kg-day | LOEL (M, body weight): 1000 mg/kg-day
